≈ marks a conversion by molar mass, not a printed value. Where two headings read alike, the source gives them in different places.
Assays:
[1] = system: S. aureus ASAU001 (Susceptible Organism ATCC 29213); experiment: MIC assay, S. aureus ASAU001; assay type: cell-based; settings: Staphylococcus aureus, ATCC29213, read-out: MIC ASAU 001
Procedure: (§1) The in vitro MIC for bacterial isolates may be obtained in the following manner: a test compound is incorporated into a series of two-fold dilutions in cation adjusted Mueller-Hinton broth (CAMHB). Different bacterial strains diluted to provide a uniform inoculum are added to the CAMHB containing test compounds. A well without test compound is included for each strain as a growth control. […] The procedures used in these experiments are generally those standardized by the Clinical and Laboratory Standards Institute (CLSI), as set forth in the CLSI publication entitled “M7-A7. Methods for dilution antimicrobial susceptibility tests for bacteria that grow aerobically; approved standard-seventh edition.” (2006), which is incorporated by reference as if fully set forth herein. The following exemplifies such a procedure although it is to be understood that modifications of the procedure may be implemented as required.
(§2) Two-fold dilutions of the test compounds are prepared in CAMHB at 2× the concentration range to be tested if the compounds are soluble in aqueous solution. Alternately, dimethylsulfoxide (DMSO) is used to prepare two-fold dilutions at 10× the concentration range to be tested. Reference drugs such as cefotaxime, vancomycin or imipenem are used as positive controls. A few isolated colonies are retrieved from a pure culture prepared on an agar plate and suspended in PBS until the turbidity of the suspension matches a 0.5 McFarland standard which is equal to approximately 10^8 sCFU/mL. This solution is further diluted in CAMHB to 10^6CFU/mL if compounds are diluted in CAMHB and 5×10^5 CFU/mL if compounds are diluted in DMSO. The CAMHB plates containing the compound dilutions are combined in equal volumes with the higher density inoculum, or 10 μL of the DMSO dilutions are added to the lower density inoculum. When S. aureus is the organism being tested and the compound is oxacillin, a beta-lactam or a carbacephem compound of the present invention, 2% NaCl is added to the growth media. The plates are then incubated for 16-20 hours at 35° C. The plates are then observed to determine which concentration of the test compound is the MIC.

[2] = system: S. aureus ASAU1028 (CA-MRSA, USA400); experiment: MIC assay, S. aureus ASAU1028; assay type: cell-based; settings: Staphylococcus aureus, read-out: MIC ASAU 1028
Procedure: as §1, §2

[3] = system: S. aureus ASAU1029 (CA-MRSA, USA300); experiment: MIC assay, S. aureus ASAU1029; assay type: cell-based; settings: Staphylococcus aureus, read-out: MIC ASAU 1029
Procedure: as §1, §2

[4] = system: S. aureus ASAU002 (MRSA ATCC 33591); experiment: MIC assay, S. aureus ASAU002; assay type: cell-based; settings: Staphylococcus aureus
Procedure: as §1, §2

[5] = system: S. aureus ASAU1043 (MRSA, CIP, ERY, CLI, GEN resistant); experiment: MIC assay, S. aureus ASAU1043; assay type: cell-based; settings: Staphylococcus aureus, read-out: MIC ASAU 1043
Procedure: as §1, §2

[6] = system: S. aureus ASAU1033 (MRSA, CIP, ERY, CLIN, TET, GEN resistant); experiment: MIC assay, S. aureus ASAU1033; assay type: cell-based; settings: Staphylococcus aureus, read-out: MIC ASAU 1033
Procedure: as §1, §2

[7] = system: S. aureus ASAU002 (MRSA ATCC 33591); settings: previously reported (Craig et al.); cited from earlier work
[8] = system: Staphylococcus aureus Methicillin Resistance (MRSA) (ATCC 33591); settings: 160 mg/kg/day, dosed 4 times per day, previously reported (Craig et al.); cited from earlier work
[9] = previously reported (Griffith et al.); cited from earlier work
[10] = system: Staphylococcus aureus Methicillin Resistance (MRSA) (ATCC 33591); experiment: Neutropenic mouse infected thigh model; assay type: in vivo, mice
Procedure: Groups of 6 male specific-pathogen-free CD-1 mice weighing 22±2 g are used. Animals are rendered immunosuppressedion by two intraperitoneal injections of cyclophosphamide, the first at 150 mg/kg 4 days before infection (day −4) and the second at 100 mg/kg 1 day before infection (day −1). On day 0, animals are inoculated intramuscularly (0.1 ml/thigh) with 1×10^5 CFU/mouse of Staphylococcus aureus Methicillin Resistance (MRSA) (ATCC 33591) into right thigh. Vehicle and/or test substances are then administered (IV, SC, or PO) 2 hours later. At 26 hours after inoculation, muscle of the right thigh is harvested from each of the survival test animals. The removed muscle tissues are then homogenized in 3 to 4 ml of PBS, pH 7.4 with a ceramic mortar. Homogenates of 0.1 ml are used for serial 10-fold dilutions and plated on Muller Hinton Broth in 1.5% Bacto® Agar for CFU determination. Decrease of the CFU/g muscle of right thigh in 99 percent or more (≧99) of the animals indicates significant activity. See, e.g., Andes, D. et al., Antimicrobial Agents and Chemotherapy, 46: 1665-1670 (2002); and Griffith, D. C., et al., Antimicrobial Agents and Chemotherapy, 50: 1628-1632 (2006).
Test compounds were dosed s.c. at 60, 120 or 240 mg/kg/day, except vancomycin at a single dose level of 220 mg/kg/day.

[11] = Pharmacokinetic study in rats; assay type: in vivo; settings: male, Sprague-Dawley, rat
Procedure: Male cannulated Sprague-Dawley rats (˜250 g) are administered test compounds by IV, PO, or SC routes. All animals are weighed prior to dose administration. Blood (˜0.25 mL) is collected by cannula transferred into microtainer tubes containing EDTA at time points 2 (I.V. animals only), 5, 15, 30, 60, 120, 240, 360, 480, 1440 minutes. After collection, the blood samples are centrifuged at approximately 1000×g at 2-8° C. for approximately 10 minutes. Each plasma specimen is collected, aliquoted into cluster tubes, and stored at ˜−20° C. until analysis.

[12] = S. aureus ASAU002, MRSA ATCC 33591, read-out: MIC ASAU 002

| Structure (SMILES) | MIC [1] [µg/mL] | MIC [2] [µg/mL] | MIC [3] [µg/mL] | MIC [4, 12] [µg/mL] | MIC [5] [µg/mL] | MIC [6] [µg/mL] | MIC [7] [µg/mL] | log kill in CFU count [8] [log kill] | T1/2 [9] [h] | Vss [9] [L/kg] | MIC ([4]; strain used in the infected thigh model (ATCC 33591), read-out: MIC) [µg/mL] | log kill (CFU) in thigh ([10]; s.c., lowest dose of 60 mg/kg/day (TID 20 mg/kg/8 h)) [log kill] | efficacy compared with vancomycin ([10]; vancomycin 220 mg/kg/day (BID 110 mg/kg/12 h)) | time uncorrected plasma concentrations are above the MIC ([11]; in vivo, 10 mg/kg) [h] | half-life ([11]; plasma, rats, 10 mg/kg IV) [min] | Vd ([11]; plasma, rats, 10 mg/kg IV, read-out: volume of distribution Vss) [L/kg] |
| --- | --- | --- | --- | --- | --- | --- | --- | --- | --- | --- | --- | --- | --- | --- | --- | --- |
| NCCSCc1cnccc1SC1=C(C(=O)O)N2C(=O)[C@@H](NC(=O)/C(=N\O)c3nsc(N)n3)[C@H]2CC1 [48/1, (6R,7S,Z)-7-(2-(5-amino-1,2,4-thiadiazol-3-yl)-2-(hydroxyimino)acetamido)-3-(3-((2-aminoethylthio)methyl)pyridin-4-ylthio)-8-oxo-1-aza-bicyclo[4.2.0]oct-2-ene-2-carboxylic Acid] | ≤ 1 | ≤ 1 | ≤ 1 | ≤ 1 | 1 to 8 (≈ 1.82 to 14.5 µM) | 1 to 8 (≈ 1.82 to 14.5 µM) | – | – | – | – | 1 (≈ 1.82 µM) | 1 | more effective than vancomycin | 2 | 108 | 1.08 |
| CO/N=C(\C(=O)N[C@@H]1C(=O)N2C(C(=O)O)=C(Sc3cccnc3CSC3CCNC3)CC[C@H]12)c1nc(N)sc1Cl (stereo partly drawn) [42/1, (6R,7S,Z)-7-(2-(2-amino-5-chlorothiazol-4-yl)-2-(methoxyimino)acetamido)-8-oxo-3-(2-((pyrrolidin-3-ylthio)methyl)pyridin-3-ylthio)-1-aza-bicyclo[4.2.0]oct-2-ene-2-carboxylic Acid] | ≤ 1 | 1 to 8 (≈ 1.6 to 12.8 µM) | 1 to 8 (≈ 1.6 to 12.8 µM) | 1 to 8 (≈ 1.6 to 12.8 µM) | > 8 | 1 to 8 (≈ 1.6 to 12.8 µM) | – | – | – | – | – | – | – | – | – | – |
| Cc1nc(SC2=C(C(=O)O)N3C(=O)[C@@H](NC(=O)/C(=N\O)c4nc(N)sc4Cl)[C@H]3CC2)sc1C [33/1, (6R,7S,Z)-7-(2-(2-amino-5-chlorothiazol-4-yl)-2-(hydroxyimino)acetamido)-3-(4,5-dimethylthiazol-2-ylthio)-8-oxo-1-aza-bicyclo[4.2.0]oct-2-ene-2-carboxylic Acid] | ≤ 1 | 1 to 8 (≈ 1.89 to 15.1 µM) | ≤ 1 | 1 to 8 (≈ 1.89 to 15.1 µM) | 1 to 8 (≈ 1.89 to 15.1 µM) | 1 to 8 (≈ 1.89 to 15.1 µM) | – | – | – | – | – | – | – | – | – | – |
| CO/N=C(\C(=O)N[C@@H]1C(=O)N2C(C(=O)O)=C(Sc3nncs3)CC[C@H]12)c1nsc(N)n1 [50/1, (6R,7S,Z)-3-(1,3,4-thiadiazol-2-ylthio)-7-(2-(5-amino-1,2,4-thiadiazol-3-yl)-2-(methoxyimino)acetamido)-8-oxo-1-aza-bicyclo[4.2.0]oct-2-ene-2-carboxylic Acid] | ≤ 1 | 1 to 8 (≈ 2.07 to 16.6 µM) | 1 to 8 (≈ 2.07 to 16.6 µM) | – | > 8 | > 8 | – | – | – | – | – | – | – | – | – | – |
| Nc1nc(/C(=N/O)C(=O)N[C@@H]2C(=O)N3C(C(=O)O)=C(Sc4cccnc4CSC4CCNC4)CC[C@H]23)c(Cl)s1 (stereo partly drawn) [30/1, (6R,7S,Z)-7-(2-(2-amino-5-chlorothiazol-4-yl)-2-(hydroxyimino)acetamido)-8-oxo-3-(2-((pyrrolidin-3-ylthio)methyl)pyridin-3-ylthio)-1-aza-bicyclo[4.2.0]oct-2-ene-2-carboxylic acid] | ≤ 1 | ≤ 1 | ≤ 1 | – | 1 to 8 (≈ 1.64 to 13.1 µM) | 1 to 8 (≈ 1.64 to 13.1 µM) | – | – | – | – | – | – | – | – | – | – |
| CO/N=C(\C(=O)N[C@@H]1C(=O)N2C(C(=O)O)=C(Sc3ccncc3)CC[C@H]12)c1nsc(N)n1 [53/1, (6R,7S,Z)-7-(2-(5-amino-1,2,4-thiadiazol-3-yl)-2-(methoxyimino)acetamido)-8-oxo-3-(pyridin-4-ylthio)-1-aza-bicyclo[4.2.0]oct-2-ene-2-carboxylic Acid] | ≤ 1 | 1 to 8 (≈ 2.1 to 16.8 µM) | 1 to 8 (≈ 2.1 to 16.8 µM) | – | > 8 | > 8 | – | – | – | – | – | – | – | – | – | – |
| Nc1nc(/C(=N/O)C(=O)N[C@@H]2C(=O)N3C(C(=O)O)=C(Sc4nncs4)CC[C@H]23)ns1 [46/1, (6R,7S,Z)-3-(1,3,4-thiadiazol-2-ylthio)-7-(2-(5-amino-1,2,4-thiadiazol-3-yl)-2-(hydroxyimino)acetamido)-8-oxo-1-aza-bicyclo[4.2.0]oct-2-ene-2-carboxylic Acid] | ≤ 1 | 1 to 8 (≈ 2.13 to 17.1 µM) | ≤ 1 | – | > 8 | > 8 | – | – | – | – | – | – | – | – | – | – |

Continued, in another order:

| MIC [1] [µg/mL] | MIC [2] [µg/mL] | MIC [3] [µg/mL] | MIC [4, 12] [µg/mL] | MIC [5] [µg/mL] | MIC [6] [µg/mL] | Structure (SMILES) | MIC [7] [µg/mL] | log kill in CFU count [8] [log kill] | T1/2 [9] [h] | Vss [9] [L/kg] | MIC ([4]; strain used in the infected thigh model (ATCC 33591), read-out: MIC) [µg/mL] | log kill (CFU) in thigh ([10]; s.c., lowest dose of 60 mg/kg/day (TID 20 mg/kg/8 h)) [log kill] | efficacy compared with vancomycin ([10]; vancomycin 220 mg/kg/day (BID 110 mg/kg/12 h)) | time uncorrected plasma concentrations are above the MIC ([11]; in vivo, 10 mg/kg) [h] | half-life ([11]; plasma, rats, 10 mg/kg IV) [min] | Vd ([11]; plasma, rats, 10 mg/kg IV, read-out: volume of distribution Vss) [L/kg] |
| --- | --- | --- | --- | --- | --- | --- | --- | --- | --- | --- | --- | --- | --- | --- | --- | --- |
| ≤ 1 | 1 to 8 (≈ 1.87 to 15 µM) | ≤ 1 | 1 to 8 (≈ 1.87 to 15 µM) | 1 to 8 (≈ 1.87 to 15 µM) | 1 to 8 (≈ 1.87 to 15 µM) | Nc1nc(/C(=N\O)C(=O)NC2C(=O)N3C(C(=O)O)=C(/C=C4\CCN(C5CCNC5)C4=O)CS[C@H]23)ns1 (some centres unmarked) [Comparative Compound 1, reference compound] | – | – | – | – | – | – | – | – | – | – |
| ≤ 1 | 1 to 8 (≈ 2 to 16 µM) | 1 to 8 (≈ 2 to 16 µM) | > 8 | > 8 | > 8 | Nc1nc(/C(=N/O)C(=O)N[C@@H]2C(=O)N3C(C(=O)O)=C(Sc4cscn4)CC[C@H]23)c(Cl)s1 [35/1, (6R,7S,Z)-7-(2-(2-amino-5-chlorothiazol-4-yl)-2-(hydroxyimino)acetamido)-8-oxo-3-(thiazol-4-ylthio)-1-aza-bicyclo[4.2.0]oct-2-ene-2-carboxylic Acid] | – | – | – | – | – | – | – | – | – | – |
| ≤ 1 | ≤ 1 | ≤ 1 | 1 to 8 (≈ 2.02 to 16.2 µM) | 1 to 8 (≈ 2.02 to 16.2 µM) | 1 to 8 (≈ 2.02 to 16.2 µM) | Nc1nc(/C(=N/O)C(=O)N[C@@H]2C(=O)N3C(C(=O)O)=C(Sc4ccncc4)CC[C@H]23)c(Cl)s1 [27/1, (6R,7S,Z)-7-(2-(2-amino-5-chlorothiazol-4-yl)-2-(hydroxyimino)acetamido)-8-oxo-3-(pyridin-4-ylthio)-1-aza-bicyclo[4.2.0]oct-2-ene-2-carboxylic Acid] | – | – | – | – | – | – | – | – | – | – |
| ≤ 1 | – | – | ≤ 1 | – | – | Nc1nnc(SC2=C(C(=O)O)N3C(=O)[C@@H](NC(=O)/C(=N\O)c4nc(N)sc4Cl)[C@H]3CC2)s1 [Comparative Compound 2] | 1 (≈ 1.93 µM) | 3 | 1.47 | 0.91 | – | – | – | – | – | – |

Reference: patent US8445476B2, “Carbacephem β-lactam antibiotics” (Achaogen, Inc., priority 2007, dated 2013)
